{
  "source": "patent US5830910A",
  "about": "(priority 1995, dated 1998)",
  "key": {"[1]": {"test_system": "cultured hippocampal neurons", "assay": "cells", "type": "cell-based, rat", "text": "(§1) Dissociated embryonic rat hippocampal cell cultures were established and maintained. All procedures conformed with the NIH Guide for the Care and Use of Laboratory Animals and were approved by the University of Kentucky Animal Care and Use Committee. Cultures were maintained on a polyethyleneimine-coated substrate in plastic 35-mm dishes or 96 wall plates (for cell survival studies) or glass-bottom 35-mm dishes (for [Ca^2+ ]i imaging studies). The cell density was ^~ 70-100 cells/mm^2. Cells were maintained in Eagle's minimum essential medium supplemented 10% with fetal bovine serum and containing 20 mM sodium pyruvate. […] Aβ25-35 (Bachem, lot ZJ744) and Aβ1-40 (Bachem, lot ZK600) were stored in the lyophilized form, and stocks were prepared immediately before use by dissolving the peptide at a concentration of 1 mM in sterile distilled water. […] Glutamate and colchicine (Sigma) were prepared as 200-500x stocks in saline. Cytochalasins D and E (Sigma) and calcium ionophore 4-bromo-A23187 (Calbiochem) were prepared as 500x stocks in dimethyl sulfoxide. Vitamin E (α-tocopherol; Sigma) was prepared as a 500x stock in ethanol. Nordihydroguaiaretic acid and FeSo4 were prepared as 500x stocks in sterile water.\n(§2) Neuronal survival was quantified by counting viable neurons in the same microscope fields (10x objective) immediately before experimental treatment and at time points after treatment. In addition, cells were grown in 96-well plates and Alamar blue fluorescence (Alamar Laboratories)was quantified by using a fluorescence plate reader. Alamar Blue is a non-fluorescent substrate that, after reduction by cell metabolites, becomes fluorescent. Usually neurons that died in the time intervals (20-48 h) between examination points were absent. Viability of the remaining neurons was assessed by morphological criteria. Neutrons with intact neurites of uniform diameter and a soma with a smooth, round appearance were considered viable, whereas neurons with fragmented neurites and a vacuolated or swollen soma were considered nonviable. Survival values were expressed as percentages of the initial number of neurons present before experimental treatment. Statistical comparisons were made using ANOVA and Scheffe post-hoc tests for pairwise comparisons.\nFIG. 5. […] Cytochalasin D was added to cultures 30 min prior to exposure to glutamate, and control cultures were exposed to 0.2% dimethylsulfoxide.\n(A) Neuronal survival was quantified in cultures that had been pretreated with the indicated concentrations of cytochalasin D and then exposed to 50 μM glutamate for 20 h. Values represent the means and SEM of determinations made in four separate cultures. […] Pairwise statistical comparisons of cytochalasin-treated cultures with the control survival (Scheffe's test) indicated 1 nM cytochalasin D, P<0.05; 10 nM cytochalasin D, P<0.001; 100 and 1000 nM cytochalasin D, P<0.0001.\n(B) Neuronal survival was quantified in cultures that had been pretreated with either vehicle (control) or 100 nM cytochalasin D and then exposed to the indicated concentrations of glutamate for 20 h. Values represent the means and SEM of determinations made in four separate cultures. […] ANOVA with Scheffe's post hoc test.\nFIG. 6. (A) Cultures were pretreated with 100 nM cytochalasin D (CyD), 100 nM cytochalasin E (CyE), or 100 nM colchicine (Colch). Cultures were then exposed to 50 μM glutamate for 20 h. Values for neuronal survival represent the means and SEM of determinations made in four separate cultures. *P<0.001 compared to control value. **P<0.001 compared to value for cultures exposed to glutamate alone.\n[…] Values represent the means and SEM of determinations made in four separate cultures. *P<0.01 compared to value for cultures exposed to 20 μM glutamate alone. **P<0.05 compared to cultures exposed to 50 μM glutamate alone."}, "[2]": {"test_system": "cultured hippocampal neurons", "type": "cell-based, rat", "text": "as §1, §2\nFIG. 12. (A) Cultures were pretreated for 1 h with vehicle 0.2% dimethyl sulfoxide (Control) or 100 nM cytochalasin D (CyD) and were exposed to the indicated concentrations of Aβ25-35 for 48 h. Data are mean and SEM values of determinations made in four separate cultures.\n(B) Cultures were pretreated for 1 h with the indicated concentrations of cytochalasin D and then exposed to 50 μM Aβ25-35; parallel cultures were exposed to cytochalasin D alone (Control) . Data are mean and SEM values of determinations made in four separate cultures.\nFIG. 14. Cultures were exposed to 100 nM colchicine; 50 μM Aβ; 100 nM colchicine plus 50 μM Aβ; 100 nM cytochalasin E (CyE) plus Aβ (colchicine and cytochalasin E were added 1 h before Aβ); neuronal survival was assessed 48 h later. Data are mean and SEM values of determinations made in four separate cultures. *p<0.01, compared with values for control or colchicine alone. **p<0.01, compared with value for cultures exposed to Aβ alone."}, "[3]": {"test_system": "cultured hippocampal neurons", "assay": "iron (FeSO4) neurotoxicity", "type": "cell-based, rat", "text": "as §1, §2\nFIG. 8. Cultures were preincubated 1 h in the presence of 0.5% dimethylsulfoxide (control), 100 nM cytochalasin D, 50 μg/ml vitamin E (VitE), or 2 μM nordihydroguairetic acid (NDGA). Cultures were then exposed for 6 h to the indicated concentrations of FeSO4 and neuronal survival was quantified. Values represent the means and SEM of determinations made in four separate cultures. *P<0.001 compared to value for cultures exposed to 100 μM FeSO4 alone."}, "[4]": {"test_system": "cultured hippocampal neurons", "assay": "cells", "type": "cell-based, rat", "details": "Rattus norvegicus, Hippocampal neuron", "text": "as §1, §2\nValues represent the means and SEM of 4 separate cultures (cell counts) or 4 culture wells (Alamar blue assay). ^a p<0.05 compared to control value. ^b p<0.001 compound to control value. ^c p<0.01 compared to value for glutamate-treated cultures. ^d p<0.005 compared to value for glutamate-treated cultures. ^e p<0.001 compared to value for Aβ-treated cultures. ^f p<0.001 compared to value for cultures treated with 20 μM glutamate. ^g p<0.001 compared to cultures treated with 50 μM Aβ+20 μM glutamate. n.d. not determined."}, "[5]": {"test_system": "cultured hippocampal neurons", "assay": "cells", "type": "cell-based, rat", "remark": "listed apart in the source"}, "[6]": {"test_system": "neuronal [Ca^2+]i in cultured hippocampal neurons", "assay": "measurement of [Ca^2+]i, fura-2 imaging", "type": "cell-based, rat", "details": "10 μM, 3 h pretreatment; 50 μM glutamate", "text": "as §1\nFluorescence ratio imaging of the Ca^2+ indicator dye fura-2 was used to quantify [Ca^2+ ]i in neuronal somata. Cells were incubated for 30-40 min in the presence of 2 μM acetoxymethyl ester form of the [Ca^2+ ]i indicator dye fura-2 and were then washed twice (2 ml/wash) with fresh medium and allowed to incubate at least 40 min before imaging. Immediately before imaging, the normal culture medium was replaced with Hanks' balanced saline solution (GIBCO) containing 10 mM HEPES buffer and 10 mM of glucose. Cells were imaged using a Zeiss Attofluor system with a oil objective or Quantex system with a 40x oil objective. The ratio of the fluorescence emission using two different excitation wavelengths (334 and 380 nm) was used to determine [Ca^2+ ]i. The system was calibrated using solutions containing either no Ca^2+ or a saturating level of Ca^2+ (1 mM) according to the following formula: [Ca^2+ ]i =KD [(R-Rmin) / (Rmax -R)] (F0 /FS). Values represent the average [Ca^2+ ]i in the neuronal cell body. Experimental treatments were added to the bathing medium by dilution from 100-500x stocks.\n(A) Cultures were pretreated for 1 hr with 100 nM cytochalasin D and then [Ca^2+ ]i in neurons was monitored prior to and following exposure to 50 μM glutamate. The records represent the mean [Ca^2+ ]i in 8-12 neurons. Similar results were obtained in 4 separate experiments.\n(B) Aβ-induced potentiation of [Ca^2+ ]i response to glutamate is abrogated by cytochalasin D. Cultures were left untreated (Control) or were exposed to 20 μM Aβ25-35 for 6 hr or cytochalasin D plus Aβ25-35 for 6 hr. The [Ca^2+ ]i was then monitored prior to following exposure to 50 μM glutamate. Values represent the means of 8-14 neurons. Similar results were obtained in 3 separate experiments.\n(C) Cultures were pretreated for 3 hr with 50 μM Aβ alone or in combination with 100 nM cytochalasin D. The [Ca^2+ ]i in neurons was then monitored prior to and following exposure to 50 mM KCl. Values represent the mean of 14-23 neurons. Similar results were obtained in a separate experiment.\n(D) Cultures were pretreated for 1 h with 100 nM cytochalasin D. The [Ca^2+ ]i in neurons was measured immediately prior to, and at 5 min following, exposure to the indicated concentrations of glutamate. Values represent the means and SEM of determinations made in 17-26 neurons. *P<0.05 (10 μM glutamate), P<0.02 (50 μM glutamate), P<0.01 (100 μAM glutamate) compared to corresponding control values.\nFIG. 9. Cultures were pretreated for 3 h with vehicle (control) or 10 μM jasplakinolide. The [Ca^2+ ]i was monitored prior to and following exposure to 50 μM glutamate. Values represent the mean of determinations made in 10-12 neurons. Similar results were obtained in two additional experiments.\nFIG. 10. […]"}, "[7]": {"test_system": "hippocampal region CA3 neurons", "assay": "kainate lesion paradigm, CA3 neurons", "type": "in vivo, rat (Sprague-Dawley)", "experimental": "A kainate lesion paradigm was employed in adult rats to determine whether cytochalasin D was also excitoprotective. Twenty-four adult male Sprague-Dawley rats (250-300 g) were divided into the indicated experimental groups (4-5 rats/group). Kainate (0.5 µg/[…]) was injected stereotaxically into region CA1 of the right hippocampus of anesthetized rats. Cytochalasin D (the indicated concentration in 1 μl of saline-1% DMSO) or vehicle was infused into the right lateral ventricle during a 5-10 min period immediately following kainate injection. Rats were killed 48 hr later and perfused transcardially with 4% paraformaldehyde. Brain sections (30 μm) were stained with cresyl violet and stained neurons in three adjacent 40X microscope fields of hippocampal region CA3 were counted (5 sections/rat) . The neuronal counts were performed in sections removed approximately 200-400 μm from the injection site. This method results in highly reproducible, 75-99%, neuronal loss in the CA3 region in over 99% of the rats injected with kainate (calculations based on 302 rats receiving intra-hippocampal kainate). […] Approximately 80% of the neurons were killed by kainate in control animals receiving an intracerebroventricular infusion of saline immediately following kainate administration.\nCresyl violet-stained coronal sections from brains of rats administered kainate alone (left) of kainate plus cytochalasin D (CyD; right). […] Lower micrographs are high magnification of a region of CA3 from the sections shown in the upper panels.\nFIG. 3. Counts of viable neurons were made in region CA3 of Sham-operated rats, and rats infused intraventricularly with vehicle or increasing concentration of cytochalasin D […] unilateral kainate injection into region CA1 of the hippocampus. Neuronal survival in the kainate injected hippocampus is expressed as a percentage of neurons in the contralateral hippocampus. Values represent the mean and SEM (4 or 5 rats/group). *p<0.01 compared to value for sham rats. **p<0.01 compared to value for vehicle-infused rats. (ANOVA with Scheffe's post-hoc test)."}, "[8]": {"details": "read-out: Neuron Survival (% of control), Alamar Blue Assay"}},
  "note": "Read-outs that look alike come from different tables or passages of the source.",
  "data": [
    {"smiles": "C[C@H]1C/C=C/[C@H]2[C@@H]3O[C@]3(C)[C@@H](C)[C@H]3[C@H](Cc4ccccc4)NC(=O)[C@]32OC(=O)O/C=C/[C@@](C)(O)C1=O", "note": "[Cytochalasin E, cytochalasin E]", "values": [
      {"measurement": "protection against glutamate toxicity", "setting": "[1]; 100 nM, 50 μM glutamate, 20 h", "value": "significant protection against glutamate toxicity"},
      {"measurement": "protection against toxicity of glutamate", "setting": "[1]; 10-100 nM", "value": "protected"},
      {"measurement": "effect on Aβ neurotoxicity", "setting": "[2]; 100 nM, added 1 h before 50 μM Aβ, 48 h", "value": "attenuated Aβ neurotoxicity significantly"},
      {"measurement": "protection against toxicity of Aβ", "setting": "[2]; 10-100 nM", "value": "protected"}
    ]},
    {"smiles": "O=S(=O)([O-])[O-].[Fe+2]", "note": "[FeSo4]", "values": [
      {"measurement": "loss of neurons", "setting": "[3]; FeSO4 10-100 nM as printed, 6 h", "value": "concentration-dependent loss of neurons"}
    ]},
    {"smiles": "N[C@@H](CCC(=O)O)C(=O)O", "note": "[Glutamate, glutamate, reference compound]", "values": [
      {"measurement": "CC50", "setting": "[1]; Rattus norvegicus, Hippocampal neuron, 20 h, read-out: ED50 for reduction in neuronal survival", "value": "~35", "unit": "µM"},
      {"measurement": "cytotoxicity at 100 µM", "setting": "[1]; Rattus norvegicus, Hippocampal neuron, 20 h, read-out: maximum killing of neurons", "value": "> 80", "unit": "%"},
      {"measurement": "cytotoxicity at 50 µM", "setting": "[1]; Rattus norvegicus, Hippocampal neuron, 20 h, read-out: neurons killed", "value": "> 70", "unit": "%"},
      {"measurement": "viability at 20 µM", "setting": "[4]; [8]", "value": "74 ± 0.7", "unit": "%"},
      {"measurement": "viability at 100 µM", "setting": "[4]; [8]", "value": "18 ± 5.4", "unit": "%"},
      {"measurement": "viability at 100 µM", "setting": "[4]; read-out: Neuron Survival (% of control), Cell Counts", "value": "15 ± 3.3", "unit": "%"},
      {"measurement": "viability at 100 µM", "setting": "[5]; Rattus norvegicus, Hippocampal neuron, 24 h, read-out: neuronal survival in cultures exposed to glutamate", "value": "< 20", "unit": "%"}
    ]},
    {"smiles": "CC1=CC(C)CC(C)OC(=O)CC(c2ccc(O)cc2)NC(=O)C(Cc2c(Br)[nH]c3ccccc23)N(C)C(=O)C(C)NC(=O)C(C)C1", "note": "(centres unmarked) [Jasplakinolide, jasplakinolide, reference compound]", "values": [
      {"measurement": "effect on glutamate neurotoxicity", "setting": "[5]; preincubated 3 h, 10 μM (FIG. 6B legend: 1 h, 5 μM)", "value": "significantly potentiated"},
      {"measurement": "effect on glutamate-induced elevation of [Ca^2+]i", "setting": "[6]", "value": "potentiated"}
    ]},
    {"smiles": "C=C(C)[C@H]1CN[C@H](C(=O)O)[C@H]1CC(=O)O", "note": "[Kainate, kainate, reference compound]", "values": [
      {"measurement": "neurons killed by kainate", "setting": "[7]; control animals receiving i.c.v. saline, 48 hr", "value": "Approximately 80%"},
      {"measurement": "neuronal loss in the CA3 region", "setting": "[7]; intrahippocampal kainate, over 99% of rats (302 rats)", "value": "75-99%"}
    ]},
    {"smiles": "CC(Cc1ccc(O)c(O)c1)C(C)Cc1ccc(O)c(O)c1", "note": "(centres unmarked) [nordihydro-guaiaretic acid, Nordihydroguaiaretic acid]", "values": [
      {"measurement": "effect on neurotoxicity of iron", "setting": "[3]; 50 μg/ml vitamin E or 2 μM NDGA, 1 h preincubation", "value": "completely blocked"}
    ]}
  ]
}
